Data reported in patent US4310532A, “Methods and piperidinyl-alkyl-benzamide composition for inhibiting H2 histamine receptors” (The University of Toledo, priority 1980, dated 1982).
Converted amounts (≈) assume the structure as drawn. Read-outs that look alike come from different tables or passages of the source.

How the values were obtained:
histamine H2 receptor [1] = test: histamine H2 antagonist activity in vivo: block of histamine-stimulated gastric acid secretion in the lumen-perfused anesthetized rat; parameters: species or system rat (Sprague Dawley); settings: urethane-anesthetized rat; antagonist 0.24 mg/kg rapid I.V.; histamine 0.13 μmol/kg/hr; compounds as hydrochloride salts
Procedure: Sprague Dawley rats weighing between 150-200 g were used for the evaluations. Perfusion was carried out with 5% glucose solution at 37° C. Administration of histamine and test compounds was carried out by rapid I.V. injection via cannulated jugular vein. Doses of 0.13 μmol/kg/hr. of histamine were used, and 0.24 mg/kg of antagonist test compound.

histamine H2 receptor [2] = target: T1, histamine H2 receptor (Cavia porcellus, UniProt P47747); test: histamine H2 antagonism activity on the isolated guinea pig atrium (chronotropic response to histamine); assay type: cell-based, guinea pig (Hartley strain); settings: experimental compound 10 μg/ml, histamine 0.05-2.5 μg/ml
T1 construct: histamine chronotropic response
T1 sequence (P47747 whole entry): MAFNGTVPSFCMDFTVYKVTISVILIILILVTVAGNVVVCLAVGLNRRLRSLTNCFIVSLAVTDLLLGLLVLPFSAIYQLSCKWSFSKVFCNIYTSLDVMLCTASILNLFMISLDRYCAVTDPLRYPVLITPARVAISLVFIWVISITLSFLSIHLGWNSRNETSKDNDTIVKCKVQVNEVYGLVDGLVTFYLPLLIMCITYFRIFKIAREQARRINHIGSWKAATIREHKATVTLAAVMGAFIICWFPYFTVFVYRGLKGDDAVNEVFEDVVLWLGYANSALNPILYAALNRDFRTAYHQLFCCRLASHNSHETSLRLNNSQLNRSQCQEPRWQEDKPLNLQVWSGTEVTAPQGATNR
Procedure: The histamine H2 antagonism activity of these piperidinyl-alkyl-benzamide compounds was tested on the isolated guinea pig atrium. The atria from Hartley strain guinea pigs were dissected and suspended in 25 ml of McEwen's solution and attached to a transducer. Spontaneous atrial rate was determined from the recorder tracing. Chronotropic responses to increasing concentrations of histamine (0.05-2.5 μg/ml) were evaluated in the presence of placebo or experimental compound. Results are expressed in Table I as the ratio of concentration of histamine required to increase atrial rate by 50 beats/minute:concentration of histamine required to increase atrial rate by 50 beats/minute in the presence of experimental compound, 10 μg/ml.

isolated rat uterus = test: block of the contractile response to histamine of the isolated rat uterus; assay type: cell-based, rat (Sprague Dawley, female); settings: read-out: EC50 (concentration of experimental compound required to block the contractile effect of histamine by 50%)
Procedure: Further evaluation involved testing the ability of the piperidinyl-alkyl-benzamides to block the response to histamine by the isolated rat uterus. Female Sprague Dawley rats weighing approximately 150 g were injected with diethylstilbesterol (0.15 mg/rat) fifteen hours prior to sacrifice. […] The results are expressed as the % change in the contractile response to histamine relative to placebo-histamine evaluation in Table III.

histamine H2 receptor [3] = test: histamine H2-receptor antagonist activity in standard pharmacological tests (Tables I, II and III); settings: result in words
Procedure: The histamine H2 antagonism activity of these piperidinyl-alkyl-benzamide compounds was tested on the isolated guinea pig atrium. The atria from Hartley strain guinea pigs were dissected and suspended in 25 ml of McEwen's solution and attached to a transducer. Spontaneous atrial rate was determined from the recorder tracing. Chronotropic responses to increasing concentrations of histamine (0.05-2.5 μg/ml) were evaluated in the presence of placebo or experimental compound. […]
The piperidine-alkyl-benzamides, as their hydrochloride salts, were evaluated for histamine H2 antagonist activity, in vivo, by their ability to block the stimulation of acid secretion by histamine from the lumen-perfused anesthetized (urethane) rat preparation as described in Ash and Shield, Br. J. Pharmacol. Chemotherapy 27, 427 (1966) and Durant, et al., J. Med. Chem. 18, 905 (1975). […]
Further evaluation involved testing the ability of the piperidinyl-alkyl-benzamides to block the response to histamine by the isolated rat uterus. […] Contractile responses were evaluated after the addition of placebo; after the addition of experimental compounds; and after the addition of histamine (25 μg/ml). The results are expressed as the % change in the contractile response to histamine relative to placebo-histamine evaluation in Table III. […]
The product was evaluated according to Tables I, II, and III above.

[4] = isolated rat uterus, histamine 25 μg/ml, diethylstilbesterol-primed

Structure (SMILES)	MEAN % INHIBITION OF GASTRIC ACID SECRETION (histamine H2 receptor [1]) [%]	HISTAMINE RATIO (concentration of histamine required to increase atrial rate by 50 beats/minute : same in the presence of experimental compound) (histamine H2 receptor [2])	EC50 (isolated rat uterus; Rattus norvegicus) [µg/mL]	EC50 (isolated rat uterus; [4]) [µg/mL]	histamine H2-receptor antagonist activity (histamine H2 receptor [3])
CN/C(=N/CCSCc1nc[nH]c1C)NC#N [Cimetidine, reference compound]	78 ± 8	0.0025	0.3 (≈ 1.19 µM)	–	–
O=C(NCC1CCNCC1)c1ccccc1 [Example 1, N-(4-Piperidinylmethyl)benzamide]	40 ± 6	0.005	–	0.38 (≈ 1.74 µM)	significant amount of histamine H2 --receptor antagonist activity
Cc1ccc(C(=O)NCC2CCNCC2)cc1 [Example 2, N-(4-piperidinylmethyl)-p-methylbenzamide]	52 ± 5	0.004	–	0.31 (≈ 1.33 µM)	–
